Test results from ChEMBL document CHEMBL1201862, “PubChem BioAssay data set” (2004).
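Tested at 5 concentrations; 48 h exposure; 96-well plates; endpoints linearly interpolated, else capped at highest concentration. GI50 = concentration required for 50% inhibition of growth.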 Calls of active or inactive are those of the source. No stated cut-off is given here; in the data, active = GI50 up to about 1.1 µM and inactive = higher.

How the values were obtained:
Assay in all cases: DTP human tumour cell line panel, 48 h
XF498 = test system: XF498
SR = test system: SR
SW-620 = test system: SW-620
SF-268 = test system: SF-268
HCT-116 = test system: HCT-116
SK-MEL-5 = test system: SK-MEL-5
NCI-H226 = test system: NCI-H226
OVCAR-5 = test system: OVCAR-5
HL-60 = test system: HL-60
NCI-H460 = test system: NCI-H460
SNB-78 = test system: SNB-78
NCI-H522 = test system: NCI-H522
OVCAR-4 = test system: OVCAR-4
RPMI-8226 = test system: RPMI-8226
A498 = test system: A498
SK-OV-3 = test system: SK-OV-3
RXF 393 = test system: RXF 393
DMS-273 = test system: DMS-273
SF-539 = test system: SF-539
MOLT-4 = test system: MOLT-4
K562 = test system: K562
EKVX = test system: EKVX
KM12 = test system: KM12
TK-10 = test system: TK-10
SNB-19 = test system: SNB-19
DLD-1 = test system: DLD-1
KM-20L2 = test system: KM-20L2
OVCAR-8 = test system: OVCAR-8
LXFL 529 = test system: LXFL 529
HCC 2998 = test system: HCC 2998
Malme-3M = test system: Malme-3M
SK-MEL-2 = test system: SK-MEL-2
U-251 = test system: U-251
HOP-92 = test system: HOP-92
LOX IMVI = test system: LOX IMVI
HOP-62 = test system: HOP-62
UACC-62 = test system: UACC-62
786-0 = test system: 786-0
UACC-257 = test system: UACC-257
M19-MEL = test system: M19-MEL
M14 = test system: M14
COLO 205 = test system: COLO 205
OVCAR-3 = test system: OVCAR-3
IGROV-1 = test system: IGROV-1
SK-MEL-28 = test system: SK-MEL-28
CAKI-1 = test system: CAKI-1
DMS-114 = test system: DMS-114
SNB-75 = test system: SNB-75
SN12C = test system: SN12C
SF-295 = test system: SF-295
ACHN = test system: ACHN
HCT-15 = test system: HCT-15
A549 = test system: A549
CCRF-CEM = test system: CCRF-CEM
NCI-H23 = test system: NCI-H23
UO-31 = test system: UO-31
HOP-18 = test system: HOP-18
HT-29 = test system: HT-29
RXF 631 = test system: RXF 631

C=C(Nc1ccc(OC)cc1OC)C(=O)Cc1cccc[n+]1[O-]
GI50 (XF498): > 100 µM (inactive) | GI50 (SR): > 100 µM (inactive) | GI50 (SW-620): > 100 µM (inactive) | GI50 (SF-268): > 100 µM (inactive) | GI50 (HCT-116): > 100 µM (inactive) | GI50 (SK-MEL-5): > 100 µM (inactive) | GI50 (NCI-H226): > 100 µM (inactive) | GI50 (OVCAR-5): > 100 µM (inactive) | GI50 (HL-60): > 100 µM (inactive) | GI50 (NCI-H460): > 100 µM (inactive) | GI50 (SNB-78): > 100 µM (inactive) | GI50 (NCI-H522): > 100 µM (inactive) | GI50 (OVCAR-4): > 100 µM (inactive) | GI50 (RPMI-8226): > 100 µM (inactive) | GI50 (A498): > 100 µM (inactive) | GI50 (SK-OV-3): > 100 µM (inactive) | GI50 (RXF 393): > 100 µM (inactive) | GI50 (DMS-273): > 100 µM (inactive) | GI50 (SF-539): > 100 µM (inactive) | GI50 (MOLT-4): > 100 µM (inactive) | GI50 (K562): > 100 µM (inactive) | GI50 (EKVX): > 100 µM (inactive) | GI50 (KM12): > 100 µM (inactive) | GI50 (TK-10): > 100 µM (inactive) | GI50 (SNB-19): > 100 µM (inactive) | GI50 (DLD-1): > 100 µM (inactive) | GI50 (KM-20L2): > 100 µM (inactive) | GI50 (OVCAR-8): > 100 µM (inactive) | GI50 (LXFL 529): > 100 µM (inactive) | GI50 (HCC 2998): > 100 µM (inactive) | GI50 (Malme-3M): > 100 µM (inactive) | GI50 (SK-MEL-2): > 100 µM (inactive) | GI50 (U-251): > 100 µM (inactive) | GI50 (HOP-92): > 100 µM (inactive) | GI50 (LOX IMVI): > 100 µM (inactive) | GI50 (HOP-62): > 100 µM (inactive) | GI50 (UACC-62): > 100 µM (inactive) | GI50 (786-0): > 100 µM (inactive) | GI50 (UACC-257): > 100 µM (inactive) | GI50 (M19-MEL): > 100 µM (inactive) | GI50 (M14): > 100 µM (inactive) | GI50 (COLO 205): > 100 µM (inactive) | GI50 (OVCAR-3): > 100 µM (inactive) | GI50 (IGROV-1): > 100 µM (inactive) | GI50 (SK-MEL-28): > 100 µM (inactive) | GI50 (CAKI-1): > 100 µM (inactive) | GI50 (DMS-114): > 100 µM (inactive) | GI50 (SNB-75): > 100 µM (inactive) | GI50 (SN12C): > 100 µM (inactive) | GI50 (SF-295): > 100 µM (inactive) | GI50 (ACHN): > 100 µM (inactive) | GI50 (HCT-15): > 100 µM | GI50 (A549): > 100 µM (inactive) | GI50 (CCRF-CEM): > 100 µM (inactive) | GI50 (NCI-H23): > 100 µM (inactive) | GI50 (UO-31): > 100 µM (inactive) | GI50 (HOP-18): > 100 µM (inactive) | GI50 (HT-29): > 100 µM (inactive)

Cc1c(C)c2ccc3oc4ccccc4c3c2oc1=O
GI50 (SR): > 100 µM (inactive) | GI50 (SW-620): > 100 µM (inactive) | GI50 (SF-268): > 100 µM (inactive) | GI50 (HCT-116): 96.4 µM (inactive) | GI50 (SK-MEL-5): > 100 µM (inactive) | GI50 (NCI-H226): > 100 µM (inactive) | GI50 (OVCAR-5): > 100 µM (inactive) | GI50 (HL-60): > 100 µM (inactive) | GI50 (NCI-H460): > 100 µM (inactive) | GI50 (SNB-78): > 100 µM (inactive) | GI50 (NCI-H522): > 100 µM (inactive) | GI50 (OVCAR-4): > 100 µM (inactive) | GI50 (RPMI-8226): > 100 µM (inactive) | GI50 (A498): > 100 µM (inactive) | GI50 (SK-OV-3): > 100 µM (inactive) | GI50 (RXF 393): > 100 µM (inactive) | GI50 (SF-539): > 100 µM (inactive) | GI50 (MOLT-4): > 100 µM (inactive) | GI50 (K562): > 100 µM (inactive) | GI50 (EKVX): > 100 µM (inactive) | GI50 (KM12): > 100 µM (inactive) | GI50 (TK-10): > 100 µM (inactive) | GI50 (SNB-19): > 100 µM (inactive) | GI50 (DLD-1): > 100 µM (inactive) | GI50 (KM-20L2): > 100 µM (inactive) | GI50 (OVCAR-8): > 100 µM (inactive) | GI50 (LXFL 529): > 100 µM (inactive) | GI50 (HCC 2998): > 100 µM (inactive) | GI50 (Malme-3M): > 100 µM (inactive) | GI50 (U-251): > 100 µM (inactive) | GI50 (HOP-92): 52.6 µM (inactive) | GI50 (LOX IMVI): > 100 µM (inactive) | GI50 (HOP-62): > 100 µM (inactive) | GI50 (UACC-62): > 100 µM (inactive) | GI50 (786-0): > 100 µM (inactive) | GI50 (UACC-257): > 100 µM (inactive) | GI50 (M19-MEL): > 100 µM (inactive) | GI50 (M14): > 100 µM (inactive) | GI50 (COLO 205): > 100 µM (inactive) | GI50 (OVCAR-3): > 100 µM (inactive) | GI50 (IGROV-1): > 100 µM (inactive) | GI50 (SK-MEL-28): > 100 µM (inactive) | GI50 (CAKI-1): > 100 µM (inactive) | GI50 (DMS-114): 86.7 µM (inactive) | GI50 (SNB-75): 57.8 µM (inactive) | GI50 (SN12C): > 100 µM (inactive) | GI50 (SF-295): 67.3 µM (inactive) | GI50 (ACHN): > 100 µM (inactive) | GI50 (HCT-15): > 100 µM | GI50 (A549): > 100 µM (inactive) | GI50 (CCRF-CEM): > 100 µM (inactive) | GI50 (RXF 631): > 100 µM (inactive) | GI50 (NCI-H23): > 100 µM (inactive) | GI50 (UO-31): > 100 µM (inactive) | GI50 (HOP-18): > 100 µM (inactive) | GI50 (HT-29): > 100 µM (inactive)
